Experiments:
[1] = test system: methemoglobinemia model mice (sodium nitrite); test: Sodium nitrite methemoglobinemia model, survival duration; type: in vivo, NIH mice; conditions: male quasi; for Survival Duration: observed 90 min; for Prolonged Percentage: vs negative control
Excerpt: This test was designed according to the relevant provisions of The Management of Medicine Registration issued by the State Food and Drug Administration (SFDA) of the People's Republic of China, and The Assemble of Guiding Principle of Pre-clinical Research on New Drugs (in Western Medicine) from the Bureau of Drug Administration, Ministry of Public Health, People's Republic of China. Five test groups were designed for this test, namely the negative control group (A), the positive control medicine group (B), and three groups administrated with the test item at the high (C), medium (D), and low (E) dosage levels. SPF class NIH mice were randomly distributed into 10-12 pieces (male quasi) in each group. The design of experiment was described in Table 5.
In establishing the methemoglobinemia model, a 2% sodium nitrite was injected into abdomen of the mice (male mice: 240 mg/kg, 12 mL/kg; female mice: 260 mg/kg, 13 mL/kg). Stopwatch was immediately started to record time and simultaneously, vegetable oil or the test item was applied to the mice of the respective group. Mice in the positive control group I (group B-I) were administered with Nimodipine through gastric gavage an hour before model was established, while those in the positive control group II were administered Nimodipine through gastric gavage immediately upon the setting up of the model. […]

[2] = test system: cerebral ischemic hypoxia mice; test: Cerebral circulatory disturbance hypoxia (common carotid artery and vagus ligation), survival; type: in vivo, NIH mice; conditions: group B: 2.0 mg/kg hypodermic injection once a day for 5 days
Excerpt: (§1) Five test groups were designed for this test, namely the negative control group (A), the positive control medicine group (B), and three groups administrated with the test item at the high (C), medium (D), and low (E) dosage levels. SPF class NIH mice were randomly distributed into 12 to 14 pieces in each group. The design of experiment was described in Table 15.
Mice in negative control group (A) were topically applied with vegetable oil, whereas those in positive control group (B) were administrated with Nimodipine by hypodermic injection. Mice in groups (C), (D), and (E) received the test item through skin administration. All the five groups received the corresponding item once a day for 5 consecutive days. 50 minutes after the final administration of the test item, and 30 minutes after the final administration of Nimodipine, the mice were given an intraperitoneal injection of Urethane (8%, 0.8 g/kg.bw, 10 mL/kg.bw) as anesthetics. The mice then underwent a separation of the left and right common carotid artery as well as the vagus, and were separately ligated with a No. 4 suture. Survival duration for the mice were immediately recorded with a stopwatch, with results as follows: […]

[3] = test system: decapitated mice (acute cerebral ischemic hypoxia); test: Global cerebral ischemia (decapitation method), formal test; type: in vivo, NIH mice; conditions: group B: 2.0 mg/kg hypodermic injection once a day for 2 days
Excerpt: Five test groups were designed for this test, namely the negative control group (A), the positive control medicine group (B), and three groups administrated with the test item at the high (C), medium (D), and low (E) dosage levels. SPF class NIH mice were randomly distributed into 14 pieces in each group. The design of experiment was described in Table 9. Mice in negative control group (A) were topically applied with vegetable oil, whereas those in positive control group (B) were administrated with Nimodipine by hypodermic injection once a day for 2 consecutive days. Mice in groups (C), (D), and (E) received the test item through skin administration once a day for 7 consecutive days. 60 minutes after the final administration of the test item and vegetable oil to the mice of the corresponding groups, and 30 minutes after the final administration of Nimodipine to the mice of the positive medicine control group, the heads of mice were rapidly severed from the back of ear root with a pair of sharp scissors (decapitation method). The gasping duration and gasping frequency were immediately recorded with a stopwatch The results are shown as follows: […]

[4] = test system: mice in low-pressure hypoxic environment; test: Hypobaric hypoxia survival test; type: in vivo, NIH mice; conditions: group B: 26 mg/kg gastric gavage, male quasi
Experimental: as §1, with “12” for “12 to 14”, “13.” for “15.”
One hour after administrating the positive control medicine, and 30 minutes after applying the test item or the negative control in the corresponding groups, the mice (6 mice/batch, 2 batches/group) were put in consecutive order into the vacuum drier connected with a suction (built in soda lime to absorb CO2 and water). The suction process was started until the air pressure dropped to a certain negative pressure (Male mouse: 580 mmHg; female mouse: 600 mmHg). Then, stopwatch was used to record the survival duration and the number of survivals in each group within 60 minutes.

[5] = test system: sodium nitrite induced hypoxia model mice; test: Study on blood pH and blood hypoxia (sodium nitrite induced hypoxia animal model); type: in vivo, SD mice; conditions: 10 days after
Experimental: In this study regarding oxygen carrying ability of red blood cells, the test item was the formulation as described in Mixture 3 listed in Table 1 (the formulation). First of all, healthy SD mice were fed with sodium nitrite (17 mg/kg) by gastric gavage for 7 consecutive days to induce the hypoxia animal model. The mice were then randomly distributed into 8 groups: (A) normal mice blank control group, (B) normal mice applied with the formulation group (82.5 μL/kg), (C) model mice applied with vitamin C (62.5 mg/kg) control group, (D) model mice applied with vitamin E (104 mg/kg) control group, (E) model mice applied with vegetable oil (82.5 μL/kg) control group, (F) model mice applied with high dose of the formulation (330 μL/kg), (G) model mice applied with medium dose of the formulation (165 μL/kg), (H) model mice applied with low dose of the formulation (82.5 μL/kg). There were 12 mice for each group. On the 7th day of hypoxia model induction, the formulation was applied topically on the mice in the formulation groups (B, F, G and H), and equal amount of vegetable oil was also topically applied on the mice in the group (E). Vitamins C and E were administrated by gastric gavage to mice in groups (C) and (D) respectively. 10 days after the application of the corresponding items, blood samples were taken in which blood pH, arterial oxygen partial pressure (pO2), and blood oxygen were tested, and the results are as listed below: […]

[6] = test system: sodium nitrite induced memory consolidated handicap mice; test: Memory consolidated handicap model, water maze test; type: in vivo, NIH mice; conditions: group B: 1.04 mg/kg intramuscular injection
Excerpt: […], a cerebral hypoxic agent, was used to establish this memory consolidated handicap model. Due to its strong oxidation property, it could convert low value iron in the hemoglobin into high value iron and thus affects the hemoglobin to lose its anti-oxidative ability, resulting in Methemoglobinemia disease. Brain tissue is the most sensitive tissue to hypoxia and it would be injured once it experienced memory consolidated handicap. Therefore, in the establishment of this model, the applying of […] would affect the space recognition ability of the mice. This test was designed according to the relevant provisions of The Management of Medicine Registration issued by the State Food and Drug Administration (SFDA) of the People's Republic of China, and The Assemble of Guiding Principle of Pre-clinical Research on New Drugs (in Western Medicine) from the Bureau of Drug Administration, Ministry of Public Health, People's Republic of China. Five test groups were designed for this test, namely the negative control group (A), the positive control medicine group (B), and three groups administrated with the test item at the high (C), medium (D), and low (E) dosage levels. […] The design of experiment was described in Table 11. Each group of mice was continuously trained for 5 days, once in the morning and once in the afternoon, for 60 seconds in each training session. Before the training session on the afternoon of the 5th day, sodium nitrite was administered at dose level of 160 mg/kg to the mice through hypodermic injection to induce the mice to experience memory consolidated handicap symptom. 30 minutes after medication, the water maze test was carried out. The aforesaid test was then repeated on the following morning.

[7] = group B-I: 62 mg/kg gastric gavage an hour before model
[8] = group B-II: 62 mg/kg gastric gavage immediately upon model
[9] = group C: hypoxia model mice, 62.5 mg/kg gastric gavage
[10] = group D: hypoxia model mice, 104 mg/kg gastric gavage

COCCOC(=O)C1=C(C)NC(C)=C(C(=O)OC(C)C)C1c1cccc([N+](=O)[O-])c1 (stereo not shown) [Nimodipine]
Survival Duration [1, 7]: 48.44 ± 21.36 min
Prolonged Percentage [1, 7]: 56.26%
Survival Duration [1, 8]: 39.10 ± 17.30 min
Prolonged Percentage [1, 8]: 26.24%
Survival Duration [2]: 55.4 ± 15.2 min
Prolonged Percentage ([2]; vs negative control): 1224.3%
Gasping Duration, Time [3]: 24.6 ± 4.6 s
Gasping Frequency, Times [3]: 14.5 ± 3.6 Times
Gasping Duration, Extension Rate ([3]; vs negative control): 28.6%
Gasping Frequency, Increment Rate ([3]; vs negative control): 25.6%

CC(C)NCC(O)COc1cccc2ccccc12 (stereo not shown) [Propranolol]
Prolonged Percentage ([4]; vs negative control): 108.4%
Survival Duration ([4]; within 60 minutes): 50.40 ± 16.33 min
Survival Percentage ([4]; within 60 minutes): 41.7%

O=C1O[C@H]([C@@H](O)CO)C(O)=C1O [Vitamin C, vitamin C]
Blood oxygen [5, 9]: 93.6 ± 1.3 %
Blood pH [5, 9]: 7.420 ± 0.036
Oxygen partial pressure [5, 9]: 10.51 ± 0.96 kPa
Time to Reach the Platform ([6]; Day 5, Afternoon (after sodium nitrite 160 mg/kg)): 46.9 ± 15.5 s
Time to Reach the Platform ([6]; Day 5, Morning (before sodium nitrite)): 42.0 ± 24.3 s
Time to Reach the Platform ([6]; Day 6, Morning): 41.7 ± 21.1 s

vitamin E
Blood oxygen [5, 10]: 94.0 ± 2.1 %
Blood pH [5, 10]: 7.455 ± 0.049
Oxygen partial pressure [5, 10]: 10.76 ± 2.14 kPa

Source: patent US20100196521A1, “Formulation for the treatment of hypoxia and related disorders” (priority 2009, published 2010)
